In US8741894B2, “Arylsulfonamide CCR3 antagonists” (Axikin Pharmaceuticals, Inc., priority 2010, dated 2014):

What was measured:
CCR3 receptor = target: T1, CCR3 receptor (UniProt P51677); assay: CCR3 Receptor Binding Assay ([125I]-labeled human eotaxin/CCL11 displacement on cells); details: 0.1 nM [125I]-labeled human eotaxin/CCL11, 60 min at room temperature
T1 sequence (P51677 1-355): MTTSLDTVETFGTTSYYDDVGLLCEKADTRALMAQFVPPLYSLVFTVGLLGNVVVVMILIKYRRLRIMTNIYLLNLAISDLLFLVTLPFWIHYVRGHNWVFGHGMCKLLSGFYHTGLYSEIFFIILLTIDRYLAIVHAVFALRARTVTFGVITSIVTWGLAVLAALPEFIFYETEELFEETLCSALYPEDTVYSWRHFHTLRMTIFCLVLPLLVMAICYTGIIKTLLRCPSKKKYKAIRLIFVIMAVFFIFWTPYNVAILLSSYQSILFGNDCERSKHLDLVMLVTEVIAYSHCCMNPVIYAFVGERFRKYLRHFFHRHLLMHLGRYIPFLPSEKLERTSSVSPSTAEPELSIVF
Method: Cells were washed once with PBS and resuspended in a binding buffer (25 mM HEPES pH 7.6, 5 mM MgCl2, 1 mM CaCl2, 0.5% BSA, 0.1% NaN3). […] of cell suspension (2×10^5 cells/well) and 0.1 nM [^125I]-labeled human eotaxin/CCL11 (2000 Ci/mmol specific activity) were mixed in a 96-well U-bottom polypropylene plate, and incubated for 60 min at room temperature for the binding reaction. The cell suspension was then transferred to a filtration plate (#MAFB, Millipore), and washed 3 times with the binding buffer containing 0.5 M NaCl, scintillant added, and the radioactivity was counted on a TopCount (Packard). For the determination of non-specific binding, the cell suspension and [^125I]-labeled human eotaxin/CCL11 were incubated in the presence of 500 nM of unlabeled human eotaxin/CCL11. See, lino et al., “Molecular cloning and functional characterization of cynomolgus monkey (Macaca fascicularis) CC chemokine receptor, CCR3,” Cytokine 2002, 19, 276-286.
The biological results are summarized in Table 1, wherein A represents a value no greater than 50 nM, and B represents a value greater than 50 nM but no greater than 500 nM, C represents a value greater than 500 nM but no greater than 5 μM; and D represents a value greater than 5 μM.

hERG channel = target: T2, hERG channel (Homo sapiens, UniProt Q12809); assay: hERG Receptor Binding Assay (125I-BeKm-1, membranes from HEK-293 cells containing transfected hERG channels); details: 1 hr at room temperature; for Ki at 1 h: human, pH 7.2, probe 125I-BeKm-1 (0.1 nM final); for Ki: 125I-BeKm-1 0.1 nM final
T2 construct: purchased Perkin Elmer RBHERGM400UA; host or cells: HEK-293 cells transfected with hERG (membrane preparation)
T2 sequence (Q12809 whole entry): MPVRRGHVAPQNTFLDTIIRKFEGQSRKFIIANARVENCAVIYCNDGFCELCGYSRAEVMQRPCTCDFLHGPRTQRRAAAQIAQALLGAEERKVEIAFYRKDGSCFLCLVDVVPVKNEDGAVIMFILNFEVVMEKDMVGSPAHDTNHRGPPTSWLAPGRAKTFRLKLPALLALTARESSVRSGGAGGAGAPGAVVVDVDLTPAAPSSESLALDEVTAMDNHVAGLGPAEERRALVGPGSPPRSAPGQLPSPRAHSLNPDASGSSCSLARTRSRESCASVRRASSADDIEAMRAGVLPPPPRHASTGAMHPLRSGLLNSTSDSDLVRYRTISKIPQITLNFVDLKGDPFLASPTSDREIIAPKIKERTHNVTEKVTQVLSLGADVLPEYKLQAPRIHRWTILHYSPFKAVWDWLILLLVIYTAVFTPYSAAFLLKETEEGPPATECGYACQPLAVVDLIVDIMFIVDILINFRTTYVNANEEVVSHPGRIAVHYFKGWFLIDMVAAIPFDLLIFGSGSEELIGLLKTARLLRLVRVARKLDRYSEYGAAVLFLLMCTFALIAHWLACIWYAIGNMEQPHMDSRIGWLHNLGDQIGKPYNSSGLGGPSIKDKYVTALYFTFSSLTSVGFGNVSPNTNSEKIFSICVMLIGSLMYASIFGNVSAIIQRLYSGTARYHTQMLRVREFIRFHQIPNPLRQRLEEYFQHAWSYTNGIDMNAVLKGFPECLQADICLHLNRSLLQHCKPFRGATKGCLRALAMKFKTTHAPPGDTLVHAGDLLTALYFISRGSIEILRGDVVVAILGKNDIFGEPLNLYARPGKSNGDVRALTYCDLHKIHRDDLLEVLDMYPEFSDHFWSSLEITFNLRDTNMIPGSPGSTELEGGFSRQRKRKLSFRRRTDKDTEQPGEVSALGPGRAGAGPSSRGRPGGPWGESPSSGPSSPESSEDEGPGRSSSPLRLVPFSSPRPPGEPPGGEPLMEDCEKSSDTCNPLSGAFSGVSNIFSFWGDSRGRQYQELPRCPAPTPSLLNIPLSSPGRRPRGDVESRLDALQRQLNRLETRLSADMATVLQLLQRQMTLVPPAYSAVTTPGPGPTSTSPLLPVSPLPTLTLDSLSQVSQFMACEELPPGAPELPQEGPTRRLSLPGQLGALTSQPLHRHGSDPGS
Method: Medium throughput screening of compounds for interaction with the human Ether-a-go-go related gene (hERG) was performed by modification of equilibrium dissociation assays using 125I-labelled peptide BeKm-1. BeKm-1, a scorpion toxin from the Central Asian scorpion Buthus eupeus, selectively blocks the hERG channel. Angelo, K., et al., 2003, Pflugers Arch.-Eur. J. Physiol., 447: 55-63; Chiu, P J S, et al., J. Pharmacol. Sci., 2004, 95: 311-319. Isolated membrane preparations from HEK-293 cells containing transfected hERG channels (hERG K+ Channel Membrane Target Systems™; Cat #, RBHERGM400UA) (Perkin Elmer, Boston, Mass.) were suspended in assay buffer A at a final concentration of 1:150 v/v. Compounds for screening, and non-radiolabelled BeKm-1, as well as 125I-BeKm-1 radioligand (Perkin Elmer; Cat #, NEX-412; Specific Activity 2,200 Ci/mmol), were also reconstituted in Buffer A. Assay components were incubated in 96-well, round-bottom polypropylene plates in the following ratio:
25 μl compound at appropriate concentrations
25 μl radiolabelled BeKm-1 at 0.8 nM (final concentration of 0.1 nM)
150 μl membrane preparation
The assay was incubated with shaking for 1 hr at room temperature. Subsequently, the well contents were transferred to 96-well filtration plates (GF/C multiwell plates (MultiScreen™ HTS; Millipore, 290 Concord Road, Billerica, Mass. 01821 USA; Cat# MSFBN6B-XX pre-soaked in 0.3% polyethyleneimine; Acros Organics, NJ; Cat#178571000). Unbound radioactivity was removed and the membranes washed 4 times with ice-cold Buffer B, under vacuum. Plates were air-dried and bound radioactivity counted on a Packard Top-Count NXT™ microplate scintillation and luminescence counter (Packard Instrument Co., Downers Grove, Ill.). Equilibrium dissociation was analyzed and IC50 and/or Ki values were calculated using GraphPad Prism 4™ software (GraphPad Software, San Diego, Calif.).
Assay Buffer A: ([…] (MP Biomedicals, LLC; 29525 Fountain Parkway, Solon Ohio, 441389; Cat #1688449) in water, pH 7.2 with 1M Tris (Fisher Chemicals, Fair Lawn, N.J. 07410; Cat #, BP-1757-500); 100 μM KCl (Fisher Chemicals, Cat #, BP-366-500); 0.1% BSA (Sigma Aldrich, 3050 Spruce Street, St. Louis, Mo. 63103; Cat #, A3059). Assay Buffer B: 20 mM Tris HCl, pH 7.3; 150 mM NaCl (Fisher Chemicals; Cat #, S78449).
The hERG binding assay results are summarized in Table 2, wherein A represents no measured activity (i.e., a value greater than 100 μM), and B represents a value greater than 10 μM but less than 100 μM and C represents a value less than 10 μM.

SMILES | Ki (CCR3 receptor) | Ki at 1 h (hERG channel) | Ki (hERG channel)
CC(C)NC(=S)N1CCC(NS(=O)(=O)c2cc(C#N)ccc2Oc2cc(Cl)cc(Cl)c2)CC1 [Compound 36] | 50 to 500 nM | 10 to 100 µM | –
CS(=O)(=O)N1CCC(NS(=O)(=O)c2cc(C#N)ccc2Oc2cc(Cl)cc(Cl)c2)CC1 [Compound 33] | 50 to 500 nM | > 100 µM | –
Cc1ccc(S(=O)(=O)N2CCC(NS(=O)(=O)c3cc(C#N)ccc3Oc3cc(Cl)cc(Cl)c3)CC2)cc1 [Compound 30, 5-cyano-2-(3,5-dichlorophenoxy)-N-(1-tosylpiperidin-4-yl)benzenesulfonamide] | 50 to 500 nM | – | > 100 µM
N#Cc1ccc(Oc2cc(Cl)cc(Cl)c2)c(S(=O)(=O)N2CCC(NC(=O)Nc3cccc(F)c3)CC2)c1 [Compound 52] | 500 to 5000 nM | > 100 µM | –
CC(=O)N1CCC(NS(=O)(=O)c2cc(C#N)ccc2Oc2cc(Cl)cc(Cl)c2)CC1 [Compound 38] | 50 to 500 nM | > 100 µM | –
N#Cc1ccc(Oc2cc(Cl)cc(Cl)c2)c(S(=O)(=O)N2CCC(NS(=O)(=O)c3cccc(F)c3)CC2)c1 [Compound 25, N-(1-(5-cyano-2-(3,5-dichlorophenoxy)phenylsulfonyl)piperidin-4-yl)-3-fluorobenzenesulfonamide] | 50 to 500 nM | – | > 100 µM
CC(C)(C)OC(=O)N1CCC(NS(=O)(=O)c2cc(C#N)ccc2Oc2cc(Cl)cc(Cl)c2)CC1 [Compound 2] | > 5000 nM | > 100 µM | –
